target: MK2 kinase (Homo sapiens, UniProt P49137); test: bMK2 IMAP assay; conditions: not given
Sequence (P49137 whole entry): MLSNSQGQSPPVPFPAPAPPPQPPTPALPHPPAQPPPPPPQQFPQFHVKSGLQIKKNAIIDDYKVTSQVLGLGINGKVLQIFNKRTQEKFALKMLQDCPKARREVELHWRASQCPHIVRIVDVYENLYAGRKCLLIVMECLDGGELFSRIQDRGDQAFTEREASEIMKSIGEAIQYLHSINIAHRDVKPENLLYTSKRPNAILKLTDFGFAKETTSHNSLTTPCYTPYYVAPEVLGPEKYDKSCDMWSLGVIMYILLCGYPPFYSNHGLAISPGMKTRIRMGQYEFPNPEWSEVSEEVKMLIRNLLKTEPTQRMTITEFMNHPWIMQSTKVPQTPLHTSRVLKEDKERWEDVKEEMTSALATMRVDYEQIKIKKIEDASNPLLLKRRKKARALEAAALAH

IC50 [nM]	Compound
10 to 100	COc1ncc(-c2ccccc2CN2C(=O)c3oc(-c4ccc(Cl)cc4)cc3Cc3cc(N4CCNCC4)ccc32)cn1 [Compound 22]
100 to 1000	O=C1Nc2ccc(C3CCNCC3)cc2Cc2cc(-c3ccccc3)oc21 [Compound 18]
1000 to 10000	O=C1c2oc(-c3ccccc3)cc2Cc2cc(C3CCNCC3)ccc2N1Cc1ccccc1-c1ccccc1 [Compound 20]
1000 to 10000	O=C1c2sc(-c3ccc(Cl)cc3)cc2Cc2cc(N3CCNCC3)ccc2N1Cc1ccccn1 [Compound 24]
1000 to 10000	N#Cc1ccc(-c2cc3c(s2)C(=O)Nc2ccc(N4CCNCC4)cc2C3)cc1 [Compound 25]
10 to 100	COc1ccncc1-c1ccccc1CN1C(=O)c2oc(-c3ccc(Cl)cc3)cc2Cc2cc(N3CCNCC3)ccc21 [Compound 21]
10 to 100	CN1CCN(c2ccc3c(c2)Cc2cc(-c4ccc(Cl)cc4)oc2C(=O)N3Cc2ccccc2-c2cccnc2)CC1 [Compound 6]
10 to 100	Nc1ccc(-c2ccccc2CN2C(=O)c3oc(-c4ccc(Cl)cc4)cc3Cc3cc(N4CCNCC4)ccc32)cn1 [Compound 11]
1 to 10	COCN1C(=O)c2oc(-c3ccc(C#N)cc3)cc2Cc2cc(N3CCNCC3)ccc21 [Compound 13]
1000 to 10000	O=C1Nc2ccc(N3CCNCC3)cc2Cc2cc(-c3ccc(Cl)cc3)sc21 [Compound 23]
1000 to 10000	N#Cc1ccc(-c2cc3c(s2)C(=O)N(Cc2ccccn2)c2ccc(N4CCNCC4)cc2C3)cc1 [Compound 26]
100 to 1000	O=C1c2oc(-c3ccc(Cl)cc3)cc2Cc2cc(C3CCNCC3)ccc2N1Cc1ccccc1-c1ccccc1 [Compound 16]
100 to 1000	N#Cc1ccc(-c2cc3c(s2)C(=O)N(Cc2ccccc2-c2cncnc2)c2ccc(N4CCNCC4)cc2C3)cc1 [Compound 27]
10 to 100	COc1ccc(-c2ccccc2CN2C(=O)c3oc(-c4ccc(Cl)cc4)cc3Cc3cc(N4CCNCC4)ccc32)cn1 [Compound 17]

same assay, conditions: IC50 Value, IMAP fluorescence polarization; 100 μM ATP, 50 pM MK2, 100 nM TAMRA peptide substrate

IC50 [nM]	Compound
10 to 100	O=C1c2oc(-c3ccc(Cl)cc3)cc2Cc2cc(N3CCNCC3)ccc2N1Cc1ccccc1-c1cccnc1 [Compound 5]

same assay, conditions: IC50 values, IMAP fluorescence polarization; 100 μM ATP, 50 pM MK2, 100 nM TAMRA peptide substrate

IC50 [nM]	Compound
38.3	O=C1c2oc(-c3ccc(Cl)cc3)cc2Cc2cc(N3CCNCC3)ccc2N1Cc1ccccc1-c1cccnc1 [Compound 5]
